Values joined by “and” are separate entries in the source; they are usually repeats but may differ in a detail not shown here. Identical values can stand only once.
Target: T1, human P450 11A1 (Homo sapiens, UniProt P05108)
T1 sequence (P05108 41-521 limits assumed): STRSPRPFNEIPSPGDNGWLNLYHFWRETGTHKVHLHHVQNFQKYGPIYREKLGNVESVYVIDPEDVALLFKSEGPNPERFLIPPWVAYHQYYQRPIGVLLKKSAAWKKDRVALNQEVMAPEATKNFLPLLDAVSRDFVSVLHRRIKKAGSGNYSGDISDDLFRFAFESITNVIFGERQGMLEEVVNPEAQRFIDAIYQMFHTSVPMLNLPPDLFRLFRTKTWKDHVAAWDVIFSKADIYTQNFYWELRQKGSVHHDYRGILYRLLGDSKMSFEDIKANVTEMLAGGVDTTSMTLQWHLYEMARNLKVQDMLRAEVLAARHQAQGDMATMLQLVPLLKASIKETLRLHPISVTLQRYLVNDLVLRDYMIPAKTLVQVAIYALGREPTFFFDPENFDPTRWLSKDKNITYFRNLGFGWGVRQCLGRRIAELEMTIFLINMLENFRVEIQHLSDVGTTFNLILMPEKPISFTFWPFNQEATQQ
T1 sequence (P00257 59-186 partner): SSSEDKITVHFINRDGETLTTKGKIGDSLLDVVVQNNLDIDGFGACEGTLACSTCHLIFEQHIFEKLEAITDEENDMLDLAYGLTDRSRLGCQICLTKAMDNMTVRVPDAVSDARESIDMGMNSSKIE
Assay: Steady-state conversion of sterols to pregnenolone by reconstituted P450 11A1 (UPLC-MS of dansyl hydrazone)
Format: biochemical
Parameters: M A S T R S P R P F N E I P S P G D N; Met-Ala (N-terminal start residues in place of the transit peptide and Ile40) (N); made in house; host or cells: E. coli (P450 11A1 in C41(DE3); Adx and AdR in E. coli)
Settings: for Km / kcat / kcat (conversion of sterol to pregnenolone): 0.25 μM P450, 0.5 μM AdR, 10 μM Adx, 37 °C; for rate of pregnenolone formation: duplicate, raw data of Fig. 5
Description: Accordingly, all steady-state assays were done, unless otherwise noted, with a P450 11A1:Adx:AdR molar ratio of 1:40:2 (Fig. 2, that is, 0.25 μM P450, 10 μM Adx, and 0.5 μM AdR), in the absence of added lipid or detergent, and with the addition of sterol substrates in HPCD (stock 45% w/v).
As mentioned in the Introduction, many types of assays have been used to monitor the steady-state conversion of cholesterol to pregnenolone ([12], [14], [15], [16], [17], [18], [19], [20], [21]). A reliable and sensitive method was required that could be used for presteady-state reactions and was not reliant on the presence of isotope in cholesterol, in that, we also worked with 22R-OH cholesterol and 20R,22R-(OH)2 cholesterol as substrates. We utilized a method based on our work with P450 17A1 ([41], [42]), in which we derivatized the product pregnenolone as its dansyl hydrazone and separated it by ultra-performance liquid chromatography (UPLC) with detection by positive ion electrospray mass spectrometry (MS). The steroid dehydroepiandosterone (DHEA) was used an internal standard.
Reactions were performed by reconstituting P450 (0.25 μM), AdR (0.5 μM), and Adx (10 μM) on ice for 10 min prior to dilution in potassium Hepes buffer (50 mM, pH 7.4) and H2O and the addition of substrate (sterol, in HPCD (45% w/v)). Sterol dilutions were performed in HPCD to ensure that the HPCD composition was equal throughout all incubations (final 4.5% w/v). The reaction mixture was split between vials (425 μl in each), and reactions were preincubated (37 °C, 5 min) prior to initiation (75 μl) with an NADPH-generating system (0.5 mM NADP^+, 10 mM glucose 6-phosphate, and 2 μg ml^−1 glucose 6-phosphate dehydrogenase) ([61]). Reactions (5 min) were terminated by extraction into CH2Cl2 (2 ml) and transferred to an ice bath. After the experiment was complete, the quenched reactions were subjected to centrifugation (10^3g, 5 min, 23 °C) to separate layers, the organic (bottom) layer of each sample was removed (1.6 ml) to fresh glass vials, and the samples were brought to dryness under a stream of nitrogen.
Steroid extracts were subsequently derivatized with dansylhydrazine and analyzed as described previously ([42]). Briefly, the dried residue was resuspended (200 μl) in C2H5OH (fortified with 0.1% v/v CF3CO2H, as the derivatization reaction is H^+-catalyzed) and mixed with a vortex device. Samples were transferred to 1.5 ml amber glass vials, solutions of dansylhydrazine (10 mM) and DHEA, 10 μM, as internal standard) were added, and vials were capped, mixed with a vortex device, and incubated in the dark overnight (∼16 h, 23 °C). The derivatization reaction was quenched with acetone […], briefly incubated in the dark (∼30 min, 23 °C), and was then neutralized with base (250 μl of 0.5 M NaOH) and extracted into CH2Cl2 (1 ml). The samples were mixed with a vortex device and the organic (bottom) layer was removed (0.8 ml) to clean amber vials. Solvent was again removed under nitrogen, and the dried residue was dissolved in a mobile phase (100 μl) of 0.1% CF3CO2H in aqueous CH3CN (50%, v/v) for analysis.
Samples were injected (10 μl, held at 25 °C) on a 2.1 mm × 50 mm (1.7 μm) Acquity BEH octadecylsilane (C18) column (held at 40 °C) using a Waters Acquity UPLC with a flow rate of 0.2 ml min^−1 and a gradient mobile phase of (A) 0.1% aqueous HCO2H and (B) CH3CN as follows (all %B, v/v): 0 min, 40%; 0.5 min, 40%; 8 min, 100%; 8.5 min, 95%; 9 min, 100%; 9.1 min, 40%; and 10 min, 40%.

Compound: CC(C)CC[C@@H](O)[C@](C)(O)[C@H]1CC[C@H]2[C@@H]3CC=C4C[C@@H](O)CC[C@]4(C)[C@H]3CC[C@]12C [20R,22R-(OH)2 Chol, (20R,22R)-Cholest-5-ene-3β,20,22-triol]
- Km: 36 ± 7 µM
- kcat: 0.233 ± 0.017 s⁻¹
- kcat (conversion of sterol to pregnenolone): 0.23 ± 0.02 s⁻¹
- kcat and kcat/Km relative to starting substrate cholesterol (greater) (steady state): ~2 fold
- rate of pregnenolone formation (substrate 5 µM, listed as 20R,22R-(OH)2 Cholesterol): 2.46 min⁻¹ and 2.24 min⁻¹
- rate of pregnenolone formation (substrate 7.5 µM, listed as 20R,22R-(OH)2 Cholesterol): 2.57 min⁻¹ and 2.85 min⁻¹
- rate of pregnenolone formation (substrate 15 µM, listed as 20R,22R-(OH)2 Cholesterol): 3.83 min⁻¹ and 4.18 min⁻¹
- rate of pregnenolone formation (substrate 20 µM, listed as 20R,22R-(OH)2 Cholesterol): 4.26 min⁻¹ and 5.83 min⁻¹
- rate of pregnenolone formation (substrate 30 µM, listed as 20R,22R-(OH)2 Cholesterol): 5.47 min⁻¹ and 6.23 min⁻¹
- rate of pregnenolone formation (substrate 40 µM, listed as 20R,22R-(OH)2 Cholesterol): 7.20 min⁻¹ and 6.21 min⁻¹
- rate of pregnenolone formation (substrate 50 µM, listed as 20R,22R-(OH)2 Cholesterol): 6.51 min⁻¹ and 8.53 min⁻¹
- rate of pregnenolone formation (substrate 75 µM, listed as 20R,22R-(OH)2 Cholesterol): 7.45 min⁻¹ and 10.26 min⁻¹
- rate of pregnenolone formation (substrate 100 µM, listed as 20R,22R-(OH)2 Cholesterol): 12.01 min⁻¹ and 10.27 min⁻¹
- rate of pregnenolone formation (substrate 150 µM, listed as 20R,22R-(OH)2 Cholesterol): 9.70 min⁻¹ and 11.61 min⁻¹

Compound: CC(C)CC[C@H](O)[C@](C)(O)[C@H]1CC[C@H]2[C@@H]3CC=C4C[C@@H](O)CC[C@]4(C)[C@H]3CC[C@]12C [20R,22S-(OH)2 Chol, (20R,22S)-Cholest-5-ene 3β,20,22-triol]
- Km: 15 ± 2 µM
- kcat: 0.0833 ± 0.0033 s⁻¹
- kcat (conversion of sterol to pregnenolone): 0.083 ± 0.003 s⁻¹
- kcat lower than native diol 20R,22R-(OH)2 cholesterol (steady state): ~3 fold
- rate of pregnenolone formation (substrate 7.5 µM, listed as 20R,22S-(OH)2 Cholesterol): 2.07 min⁻¹ and 1.68 min⁻¹
- rate of pregnenolone formation (substrate 15 µM, listed as 20R,22S-(OH)2 Cholesterol): 1.97 min⁻¹ and 1.99 min⁻¹
- rate of pregnenolone formation (substrate 20 µM, listed as 20R,22S-(OH)2 Cholesterol): 2.93 min⁻¹ and 2.88 min⁻¹
- rate of pregnenolone formation (substrate 30 µM, listed as 20R,22S-(OH)2 Cholesterol): 3.59 min⁻¹ and 3.11 min⁻¹
- rate of pregnenolone formation (substrate 40 µM, listed as 20R,22S-(OH)2 Cholesterol): 3.90 min⁻¹ and 4.10 min⁻¹
- rate of pregnenolone formation (substrate 50 µM, listed as 20R,22S-(OH)2 Cholesterol): 3.70 min⁻¹ and 3.57 min⁻¹
- rate of pregnenolone formation (substrate 75 µM, listed as 20R,22S-(OH)2 Cholesterol): 4.16 min⁻¹ and 4.38 min⁻¹
- rate of pregnenolone formation (substrate 100 µM, listed as 20R,22S-(OH)2 Cholesterol): 4.14 min⁻¹ and 4.09 min⁻¹
- rate of pregnenolone formation (substrate 150 µM, listed as 20R,22S-(OH)2 Cholesterol): 4.64 min⁻¹ and 4.37 min⁻¹

Compound: CC(C)CC[C@@H](O)[C@@H](C)[C@H]1CC[C@H]2[C@@H]3CC=C4C[C@@H](O)CC[C@]4(C)[C@H]3CC[C@]12C [22R-OH Chol, 22R-hydroxycholesterol]
- Km: 29 ± 3 µM
- kcat: 0.152 ± 0.005 s⁻¹
- kcat (conversion of sterol to pregnenolone): 0.15 ± 0.01 s⁻¹
- rate of pregnenolone formation (substrate 2.5 µM, listed as 22R-OH Cholesterol): 1.34 min⁻¹ and 1.02 min⁻¹
- rate of pregnenolone formation (substrate 5 µM, listed as 22R-OH Cholesterol): 1.68 min⁻¹ and 1.48 min⁻¹
- rate of pregnenolone formation (substrate 7.5 µM, listed as 22R-OH Cholesterol): 1.94 min⁻¹ and 2.15 min⁻¹
- rate of pregnenolone formation (substrate 15 µM, listed as 22R-OH Cholesterol): 3.15 min⁻¹ and 3.07 min⁻¹
- rate of pregnenolone formation (substrate 20 µM, listed as 22R-OH Cholesterol): 3.29 min⁻¹ and 3.38 min⁻¹
- rate of pregnenolone formation (substrate 30 µM, listed as 22R-OH Cholesterol): 4.66 min⁻¹ and 5.17 min⁻¹
- rate of pregnenolone formation (substrate 40 µM): 5.08 min⁻¹
- rate of pregnenolone formation (substrate 50 µM, listed as 22R-OH Cholesterol): 5.23 min⁻¹ and 5.80 min⁻¹
- rate of pregnenolone formation (substrate 75 µM, listed as 22R-OH Cholesterol): 6.76 min⁻¹ and 6.27 min⁻¹
- rate of pregnenolone formation (substrate 100 µM, listed as 22R-OH Cholesterol): 7.41 min⁻¹ and 6.71 min⁻¹
- rate of pregnenolone formation (substrate 150 µM, listed as 22R-OH Cholesterol): 7.68 min⁻¹ and 8.05 min⁻¹

Compound: CC(C)CCC[C@@H](C)[C@H]1CC[C@H]2[C@@H]3CC=C4C[C@@H](O)CC[C@]4(C)[C@H]3CC[C@]12C [Cholesterol]
- Km: 38 ± 6 µM
- kcat: 0.115 ± 0.0083 s⁻¹
- kcat (conversion of sterol to pregnenolone): 0.12 ± 0.01 s⁻¹
- kcat (conversion of sterol to pregnenolone) (listed as cholesterol): 0.12 s⁻¹
- kcat for conversion to pregnenolone (40-fold excess Adx): 6.9 nmol product formed min^−1 (nmol P450)^−1
- rate of pregnenolone formation (substrate 7.5 µM): 1.32 min⁻¹ and 1.18 min⁻¹
- rate of pregnenolone formation (substrate 15 µM): 1.88 min⁻¹ and 1.72 min⁻¹
- rate of pregnenolone formation (substrate 20 µM): 2.38 min⁻¹ and 2.20 min⁻¹
- rate of pregnenolone formation (substrate 30 µM): 2.47 min⁻¹ and 2.46 min⁻¹
- rate of pregnenolone formation (substrate 40 µM): 3.96 min⁻¹ and 3.88 min⁻¹
- rate of pregnenolone formation (substrate 50 µM): 4.06 min⁻¹ and 4.00 min⁻¹
- rate of pregnenolone formation (substrate 75 µM): 4.99 min⁻¹ and 4.93 min⁻¹
- rate of pregnenolone formation (substrate 100 µM): 5.93 min⁻¹ and 4.92 min⁻¹
- rate of pregnenolone formation (substrate 150 µM): 4.83 min⁻¹ and 5.08 min⁻¹

Source: paper PMC10716780, “The multistep oxidation of cholesterol to pregnenolone by human cytochrome P450 11A1 is highly processive” (The Journal of Biological Chemistry, 2023)
